Data from a melting point compilation (Tetko et al.; mined from patent text by program, amines drawn as free bases though some values may be those of a salt).

SMILES | melting point
CC(C)c1sc2ncnc(N)c2c1-c1ccc(N)cc1 | 187 to 189 °C
Cc1nn(CCO)c(C)c1Oc1cc(Cl)cc(Cl)c1 | 114 to 115 °C
OC1=C(c2ccccc2)CC(O)(Cl)C=C1 (stereo not drawn) | 110 to 111 °C
COCC1(CCCCCCCCCCCCC2(C(=O)NS(C)(=O)=O)CC2)CC1 | 44.6 to 45.3 °C
COC(=O)C1=C(C(OC)OC)NC(C)=C(C(=O)OCC(C)C)C1c1ccccc1C#N (stereo not drawn) | 126 to 128 °C
Cn1c([N+](=O)[O-])cnc1COc1ccc([N+](=O)[O-])cc1 | 150 °C
C=CCc1cc2c(cc1O)CCC(=O)N2CC=C(C)C | 148 to 150 °C
CCc1c(C)nc2ccc([N+](=O)[O-])cn2c1=O | 164 to 165 °C
CN=C(N)Nc1nc(CCCCNC(=NC#N)NC)cs1 | 119 to 122 °C
CSc1nc(C)ccc1NC(=O)CCCCCCCCBr | 80 to 82 °C
NC(=O)CC1Cc2cc(Br)cc3[nH]c(=O)c(=O)n1c23 (stereo not drawn) | > 300 °C
CC(=O)NC1C(Oc2ncn(Cc3ccc([N+](=O)[O-])cc3)c2C(N)=O)OC(COC(C)=O)C(OC(C)=O)C1OC(C)=O (stereo not drawn) | 114 to 117 °C
O=c1[nH]ncc2c(OCC3CO3)cccc12 (stereo not drawn) | 173 to 174 °C
Cc1cc(SC2CC(=O)N(C)C2=O)cc(C(C)(C)C)c1N (stereo not drawn) | 92 to 94 °C
CCCCCc1ccc(OCC(=O)O)c(CCCCC)c1 | 115 to 120 °C
Cc1nc(NC(=O)N(C)C)sc1C | 202 to 204 °C
CCOC(=O)c1ccc2c(c1)C(=O)NC(C(Cl)(Cl)Cl)N2 (stereo not drawn) | 243 to 244 °C
CC(=O)OC1CSC(Oc2cccnc2-c2ccco2)C(OC(C)=O)C1OC(C)=O (stereo not drawn) | 160 °C
CC(C)(C)C(=O)c1ccc(C(N)=O)cc1 | 138 to 140 °C
ClCCCc1nnnn1C1CCCCC1 | 82 to 85 °C
CCCNc1sc(C(N)=O)c2c1-c1c(cnn1C)CC2 | 207 to 208 °C
CCOC(=O)CS(=O)(=O)CCCC=C1SC=CS1 | 79.5 to 81 °C
CCNc1nc(SC)ncc1CNc1cc(OC)cc(OC)c1Cl | 116 to 118 °C
CN(C)S(=O)(=O)NCC1COc2ccccc2O1 (stereo not drawn) | 76 to 78 °C
CCOc1cc2nc(CCl)nc(Cl)c2cc1OCC | 109 to 112 °C

SMILES | melting point
C=C(C)C(=O)Nc1ccc(O)c(C(=O)O)c1 | 218 °C
COC(=O)/C=C/c1cc(C)cc(NC(C)=O)n1 | 139 °C
CC(C)c1nn2ccccc2c1SC#N | 91 to 92.5 °C
COc1cc2cc(C(=O)OC(C)(C)C)c(N)cc2cc1OCCN1CCOCC1 | 125 to 127 °C
CC(C)(C)c1ccc(C(=O)Nc2ccc(OCC(=O)O)cc2)cc1 | 179 to 181 °C
CCCCCCS(=O)(=O)c1nn2c(=O)c(C(C)=O)cnc2s1 | 124 to 125 °C
CCCCCCCNC1=CC(=O)c2c(OC)ccc(OC)c2C1=O | 74 to 75 °C
Cc1nc(O)c2[nH]nc(C(C)C)c2n1 | > 250 °C
N#Cc1c(Cl)ccc2cc(Cl)cnc12 | 222 °C
CCCCCCCCCCCCOCC(COCCCCCCCCCCCC)(CC(=O)O)CC(=O)O | 80 to 82 °C
COC(=O)CCc1ncccc1O | 94 to 96 °C
O=C(O)CCCCCCNC(=O)C(CS)Cc1ccccc1 (stereo not drawn) | 71 to 73 °C
N#Cc1c(O)c2sccc2[nH]c1=O | > 300 °C
C[C@@H](O)Cn1ncc2ccc(O)c([N+](=O)[O-])c21 | 70 to 74 °C
Cc1nc(O)c(C)c(Cl)n1 | 224 to 225 °C
COC(=O)C(CC(=S)c1ccc(C)cc1)C(C)=O (stereo not drawn) | 110 to 112 °C
CC(C)C[C@@H](C(=O)OC(C)(C)C)N1C(=O)NC(C(F)(F)F)(C(F)(F)F)C1=O | 105 to 106 °C
Cn1cc(C(=O)NC2CCCNC(=O)C2)nn1 (stereo not drawn) | 259 to 260 °C
COC=C(C(=O)OC)N(C)c1nc(-c2ccc(Cl)c(Cl)c2)cs1 | 96 to 98 °C
CC(C)(C#N)Cc1ccc2cc(CC(C)(C)C#N)ccc2c1 | 178 to 180 °C
COC(=O)C(O)CCN1C(=O)c2ccccc2C1=O (stereo not drawn) | 123 to 124 °C
CN1CCN(C(=O)OC2c3ccccc3C(=O)N2c2ccc3ccc(Br)nc3n2)CC1 (stereo not drawn) | 260 °C
O=C(NC1CC1)c1cc2[nH]cnc2c(Cl)c1NC(=O)c1cc(C(F)(F)F)nn1-c1ncccc1Cl | 198 to 201 °C
CCc1nc(NC2CCCC2)c(-c2ccccc2)c(NC2CCCC2)n1 | 70 to 71 °C

Further lines, results first:

melting point | SMILES
177 to 180 °C | COc1ccc2c(c1)c(Cc1nc(-c3ccc(Br)cc3)cs1)c(C)n2C(=O)c1ccc(Cl)cc1
145 to 146 °C | O=Cc1nc(C(Cl)Cl)cnc1N1C(=O)c2ccccc2C1=O
241 to 242 °C | CCOc1ccc(CC(=O)Nc2ccc(S(=O)(=O)Nc3ccccc3C(=O)O)cc2)cc1
125 to 126 °C | CC(C)(C)OC(=O)c1sc(NCc2ccccc2)c2c1CCCC2=O
221 to 222 °C | O=C(c1ccccc1)c1c(-c2ccccc2)sc2cc(O)ccc12
136 °C | O=C(Nc1ccccc1S(=O)(=O)c1ccccc1)N[C@@H](Cc1ccc(Oc2nccc3cnccc23)cc1)C(=O)O
154 to 155 °C | COCCNC(=O)c1ccnc(-c2ccc3c(c2)C(c2ccc(Cl)cc2Cl)CC3)c1 (stereo not drawn)
210 to 212 °C | CC(C(=O)NC1CC(C(=O)O)Nc2cc(Cl)cc(Cl)c21)c1ccccc1 (stereo not drawn)
102 to 104 °C | CC(=O)NNC(=O)Nc1ccccc1-c1ccc(C)cc1
> 300 °C | O=c1nc(-c2ccc3c(c2)OCCO3)c2cc3c(cc2[nH]1)OCO3
292 to 294 °C | CCCCn1c(=O)c2c(NC)n[nH]c2n(Cc2ccc(Cl)cc2)c1=O
194 °C | Cc1cc2cc(CN3CCCC3)cnc2cc1NC(=O)c1ccc(-c2ccc3ccccc3c2)cc1
203 °C | N#CCc1ccc(-c2nc3ccccc3o2)cc1[N+](=O)[O-]
143 to 144 °C | CCOC(=O)c1c(N2CCCCC2)c(C#N)c(=O)n2ccccc12
165 to 166 °C | Cc1c(CNCC(C)(C)C)n(C)c2ccc(NC(=O)c3ccc(OC[C@@H]4CCCO4)cc3)cc12
68.5 to 69.5 °C | CCCCCC(C(=O)c1ccccc1)C(=O)c1ccccc1
164 to 165 °C | O=C(c1ccccc1)c1ccccc1C#CCN1C(=O)c2ccccc2C1=O
147 to 149 °C | c1ccc2c(-n3cncn3)ccnc2c1
138 to 140 °C | CC(=O)Nc1ccc(F)cc1-c1ccc(Cl)c(Cl)c1
210 to 212 °C | CCC(Nc1ncnc2[nH]cnc12)c1oc2cccc(F)c2c(=O)c1-c1ccccc1 (stereo not drawn)
160 to 162 °C | O=C(O)CC1c2cc([N+](=O)[O-])ccc2CCN1C(=O)OCc1ccccc1 (stereo not drawn)
78 °C | CNC(=O)C(=O)c1ccccc1COc1ccccc1
180 °C | CC(C)(C)OC(=O)Nc1ccc(C#Cc2ccc(F)cc2)cc1N
210 to 214 °C | CCCc1cn2ccccc2c1C(=O)c1ccc(O)cc1
208 to 210 °C | Cc1ccc(C(=O)N2CCc3nnc(NN=C4CCCCC4)cc3C2)cc1
81 to 83 °C | Cn1nccc1[C@H](O)c1ccccc1
176 to 178 °C | Cc1nc(-n2cc(C(=O)c3ccccc3)nn2)sc1C(=O)NCc1ccccc1

melting point | SMILES
> 268 °C | Oc1ccc(-c2ncc3ncc(-c4ccncc4)cc3n2)cc1
110 to 112 °C | Cc1ccc2[nH]cc(C3=C(c4cn(C)c5ccc(C)cc45)C(=O)N(C)C3=O)c2c1
178 to 181 °C | CCCOc1ccc(CCCOc2ccc3c(c2)C=C(C(=O)Nc2ccc(CN(C)C4CCOCC4)cc2)CCS3(=O)=O)cc1
87 to 90 °C | CC(C)(O)c1ccc(C(Cc2ccc(F)cc2)C(=O)Nc2nc3ccccc3o2)cc1 (stereo not drawn)
83 to 86 °C | OCC(CO)(OCc1ccccc1)c1ccccc1
211 to 212 °C | O=C(NC1CCN(CC23CC(c4ccccc42)c2ccccc23)CC1)NC1CCCCO1 (stereo not drawn)
171 to 174 °C | COc1cn(-c2cc(N3CCCC3=O)ccc2F)nc(-c2ccnn2-c2ccccc2)c1=O
195 to 196 °C | CNc1nnc(-c2ccc3ncn(-c4ccc(OC(F)F)cc4)c3c2)o1
173 to 176 °C | COc1ccc(/C=C/C(=O)CC(=O)/C=C/c2ccc(O)c(F)c2)cc1O
188 to 189 °C | CCCCc1nc2c(N)nc3cc(OCc4ccccc4)ccc3c2n1CCOc1ccccc1
140 to 142 °C | CCOC(=O)c1cnc2n(c1=O)-c1ccccc1N(C(=O)OCC)C2
107 to 108 °C | COc1ccc(C(=O)C2=C(c3ccccc3)c3ccc(OC)cc3CC2)cc1
119 to 120 °C | Cc1cc(-c2ccc(S(N)(=O)=O)cc2)n(-c2ccc(F)cc2)c1Cl
> 250 °C | Cn1ncc(C(=O)N2CCC2)c1C(=O)Nc1ccn2nc(N3CCCC3)nc2c1
160 °C | O=c1nc(-c2ccccc2)c2cc([N+](=O)[O-])ccc2n1CC1CC2CCC1C2 (stereo not drawn)
208 °C | O=c1c2cc(F)c(F)cc2nc(CSc2ncnc3[nH]cnc23)n1-c1ccccc1Cl
143 to 145 °C | CC(C)CC(NC(=O)Cc1ccc(NC(=O)Nc2ccccc2Cl)cc1)c1cc(CCC(=O)O)on1 (stereo not drawn)
105 to 106 °C | CCOC(=O)CCc1cc(-c2cc3ccccc3c(=O)o2)ccc1OC
240 to 242 °C | O=C(Nc1ccc(C(CC2CCCC2)C(=O)Nc2nccs2)cc1)c1cccnc1 (stereo not drawn)
139 to 142 °C | COc1ccc(Cl)cc1N1CCN(CCCNC(=O)c2c(-c3ccccc3)noc2C)CC1
109 to 112 °C | N#Cc1cc(/C=C/C(c2cc(Cl)c(Cl)c(Cl)c2)C(F)(F)F)ccc1-n1cnc(NC(=O)C2CC2)n1 (stereo not drawn)
186 to 187 °C | Cc1cc(=O)c2cc(Oc3ccccc3)c(NS(C)(=O)=O)cc2o1
157 to 158 °C | COc1cc(-c2c(Cl)c(CNC(C)(C)C)nc3sc4c(c23)CCNC4)ccc1OC(C)C
144 to 146 °C | COc1ccc(C(F)(F)F)cc1Nc1cccn2nc(Cl)nc12
333 to 337 °C | CN1CCN(c2nc(-c3ccccc3)nc3nc(-c4ccncc4)[nH]c23)CC1
202 to 204 °C | CSC1C(=O)Nc2c(C(=O)c3ccc(F)cc3)cc(Cl)cc21 (stereo not drawn)
141 to 143 °C | COc1cccc(N2C(CO)=Cc3ccsc3S2(=O)=O)c1
